The record followed here is a melting point compilation (Tetko et al.; mined from patent text by program, amines drawn as free bases though some values may be those of a salt).

Some results are limits rather than exact numbers.

Take `Oc1ccc(Nc2ncc3ncc(-c4ccc(O)cc4)cc3n2)cc1`: the melting point (in general, the temperature, or range, at which the solid turns liquid) is greater than 268 °C.

Consider `Cn1c(=O)c2cnc(O)n2c2ccccc21`, for which the melting point was greater than 300 °C.

On to `CC1OC(=O)N(c2nc(-c3ccc(C#N)cc3)cs2)C1(C)C` (configuration not stated), for which the melting point lay in the range of 166 to 167 °C. The same measure for `Clc1cccc(C(Cl)Cl)n1`: 48 to 52 °C. Compound `CC(=O)c1sc(N2CCN(CC3CC3)C2=O)nc1C` displayed a melting point of 103 to 104 °C. Regarding `CC(C)ON=Cc1cc(-n2c(=O)cc(C(F)(F)F)[nH]c2=O)ccc1Cl`, the melting point was 191 to 193 °C. The same measure for `CCOC(=O)c1cc(F)c(N2CCC(NC(=O)OC(C)(C)C)C2)cc1F` (configuration not stated): 98 to 100 °C; for `COC1=CC=C(CN2CCN(CCCC(=O)c3ccc(F)cc3)CC2)C(F)C1=NNS(=O)(=O)c1ccc(C)cc1` (configuration not stated): 66 to 67 °C; for `CN(C)S(=O)(=O)c1cc(-c2csc(=Nc3ccc(F)cc3)n2C)ccc1Cl`: 144 to 145 °C. The same measure for `COC(=O)c1ccc(-c2nc(-c3ccc(Oc4ccccc4)cc3)no2)cc1`: 112 to 113 °C; for `CCCC(=O)c1cnc2c(OCCO)cccc2c1Nc1ccccc1C`: 125 to 127 °C; for `O=C1Nc2c(ccc3ccccc23)SC1Cc1ccc(Cl)cc1` (configuration not stated): 185 to 186 °C. For the compound `COc1cccc2c1OC1C=CC=C3C(=O)N(CC4CC4)C(=O)CC321` (configuration not stated), the melting point fell in the range of 166 to 167 °C. Under `Oc1ccc2c(c1)OCC(c1cccc(F)c1)C2c1ccc(OCCN2CCCC2)cc1` (configuration not stated) stands 146 to 150 °C. `Nc1ccc2nc3n(c2c1)CC(C(=O)OCc1ccccc1)NC3` (configuration not stated): the melting point is 115 to 118 °C. On to `CCOC(=O)c1nn(-c2ccc(F)cc2)c2c1CCCC2`, for which the melting point lay within 100 to 101 °C. In turn, `C=C1C(=O)c2cc(C)ccc2OC1c1ccccc1` (configuration not stated) showed a melting point of 57 to 63 °C.

Consider `CCCN(CCC)Cc1csc(-c2ncn3c2[C@@H]2CCCN2C(=O)c2c(Cl)cccc2-3)n1`, for which the melting point is 213 to 214 °C.

`CCCCCCCCCCCCCCCCCCOc1ccc(C(=O)C(=O)N(CC(=O)O)CC(=O)O)cc1` had a melting point of 130 to 132 °C.

`O=C(O)CCc1cccc2ccccc12`: the melting point was in the range of 151 to 153 °C. The compound `COc1ccc(N2CCN(Cc3n[nH]c4ccccc34)CC2)cc1` had a melting point of 167 to 168 °C. `Nc1ccsc1[N+](=O)[O-]` came in with a melting point of 159 °C. Consider `COc1cc(CBr)c(OC)c(CCc2cc(OC)cc(CBr)c2OC)c1`, for which the melting point fell in the range of 158 to 161 °C. For the compound `C=CCCn1c(=O)c2c(ncn2CCC)n(C)c1=O`, the melting point was determined as 48 °C. `COc1ccc2c(c1)CCN(CCc1ccc(NC=O)cc1)C2C` (configuration not stated): the melting point lay within 93 to 96 °C. The same measure for `O=C(Nc1ccc(CN2CCCCC2)cc1)c1ccc2ccc(-c3ccccc3)cc2c1`: 177 to 178 °C.

In turn, `NC(=O)[C@@H](CCC(F)(F)F)N(Cc1ccc(-c2ncon2)cc1F)S(=O)(=O)c1ccc(Cl)cc1` came in with a melting point of 66 to 68 °C. With `CC(C)C(CO)CS(N)(=O)=O` (configuration not stated), the melting point is 83 to 84 °C. `CS(=O)(=O)OCC1CCN(c2ccc(Br)cc2)C1=O` (configuration not stated) returned a melting point of 120 to 123 °C.

For the compound `NC(=O)NCC(C(=O)O)C(F)(F)F` (configuration not stated), the melting point was 149 to 150 °C. On to `Cc1ccc(C(=O)c2ccc(CC(=O)O)n2C)c(Cl)c1`, for which the melting point fell in the range of 176 to 178 °C. The same measure for `Clc1cc(Cl)c2c(c1)CCC(c1ccccc1)O2` (configuration not stated): 74 to 76 °C. Under `CNC(=C[N+](=O)[O-])NCCSCc1nc(CN(C)C)sc1C` stands 104 to 106 °C.

In turn, `BrCc1cccc(OCc2ccccc2)c1` returned a melting point of 38 to 40 °C. In turn, `CCNC(=O)N1C(c2ccccc2C(=O)OCC)=NC(=O)C1(C)C(C)C` (configuration not stated) displayed a melting point of 85 to 87 °C. In the case of `Cc1c(C(F)(F)F)cnn(-c2ncc(Cl)cc2F)c1=O`, the melting point was 91 to 93 °C. The compound `CC(CSC(=S)c1cccs1)C(=O)N1CCCC1C(=O)O` (configuration not stated) had a melting point of 149 to 150 °C.

As to `Nc1cc(NC(=O)c2cc3cc(C(F)(F)F)ccc3n2Cc2cccc(F)c2)ccn1`, the melting point fell in the range of 225 to 226 °C. Turning to `CCCCCCNC(=O)Nc1cccc(Oc2ccc3nc(COc4ccc(CC5SC(=O)NC5=O)cc4)n(C)c3c2)c1` (configuration not stated), the melting point lay in the range of 144 to 147 °C.

`COC(=O)C(C)c1ccc2c(c1)Cc1cc([N+](=O)[O-])ccc1-2` (configuration not stated) yielded a melting point of 105 to 107 °C. `CC(=O)N1CCc2ccc(Cl)c(S)c2C1` showed a melting point of 92 to 112 °C. In turn, `CCNc1cc2ncnc(N3CCN(C(=O)Nc4ccc(Oc5ccccc5)cc4)CC3)c2cc1[N+](=O)[O-]` had a melting point of 242 to 244 °C.

`NS(=O)(=O)c1cc2c(s1)S(=O)(=O)CC(=S)N2` yielded a melting point of 219 to 221 °C. Compound `NC(=S)NN1CCc2cc(Cl)ccc21` showed a melting point of 199 to 200 °C. `N#Cc1ccc(C(=O)NCCCCn2cnc3c(N)nc4ccccc4c32)cc1` had a melting point of 223 to 225 °C.

Take `COc1ccc(CCNCC(O)c2ccc(C)s2)cc1OC` (configuration not stated): the melting point is 108 to 110 °C. In turn, `CCc1cc2c(s1)-n1nc(C(N)=O)nc1C(OC(C)=O)N=C2c1ccccc1Cl` (configuration not stated) yielded a melting point of 168 to 170 °C. In turn, `COC(=O)c1ccccc1N(C)C(=O)c1ccc(OC)nc1` showed a melting point of 68 to 70 °C. In turn, `CC(=O)OCC(=O)Nc1cccc2c1C(=O)N(C1CCC(=O)NC1=O)C2=O` (configuration not stated) had a melting point of 234 to 236 °C.

As for `N#Cc1cnc2c(=O)c3ccccc3oc2c1`, the melting point was 220 to 226 °C.

The compound `O=C1CC=C(c2ccc(F)cc2)CC1` registered a melting point of 44.5 to 46.5 °C. The compound `Cc1c(NC(=O)c2ccc(-c3ccc(F)cc3)c(F)c2)ccc2cc(CN3CCCCC3)cnc12` gave a melting point of 161 to 162 °C.

Take `N#Cc1cnn(C2CCCCC2)c1N`: the melting point lay within 99 to 103 °C. The compound `Cc1oc(-c2ccccc2)nc1COc1ccc([N+](=O)[O-])cn1` registered a melting point of 142 to 143 °C. The same measure for `Cc1cc2c(c3c1NC(=O)C(C)(C)C3)OC(CBr)C2C` (configuration not stated): 192 to 193 °C; for `CCOC(=O)n1cc(F)c(N)nc1=O`: 190 to 193 °C; for `Nc1ccc(OC2=CC=CN(Oc3ccc(N)cc3)C2)cc1`: 152 to 154 °C. The same measure for `O=C1CCC(N2Cc3c(OCc4ccc(CN5CCSCC5)cc4)cccc3C2=O)C(=O)N1` (configuration not stated): 134 to 136 °C. The same measure for `Cc1nnc(COc2ccc(Oc3ccccc3)cc2)o1`: 78 to 79 °C; for `CNS(=O)(=O)Cc1ccc(NN=CCSc2ccccc2)cc1`: 110 to 112 °C; for `Cc1cc(N)n(C)c2nc(N)nc(=O)c1-2`: greater than 300 °C. In turn, `CCSc1cc(C)nc(SCC)c1NC(=O)CCCCCCCSc1nc2cccc(C(F)(F)F)c2o1` registered a melting point of 99 to 100 °C. Under `O=C1COc2cc(Nc3ccc(O)cc3)ccc2N1` stands 270 to 275 °C. `CCCc1c(OCCCCCc2ccc3cc(OC)c(OC)cc3c2)ccc(C(=O)O)c1O` registered a melting point of 135 to 137 °C. For `O=C(NCCCc1cccs1)n1cc(F)c(=O)[nH]c1=O`, the melting point was in the range of 131 to 133 °C. Under `CC(C)Oc1cc(CCC(=O)NS(=O)(=O)C(C)C)n(Cc2ccc(Cl)cc2Cl)n1` stands 135 to 136 °C; under `S=C(c1ccc(Br)cc1)N1CCOCC1`, 135 to 137 °C; under `Cc1ccc2ncc(C(=O)NC3CCCC3)c(=O)n2c1`, 162 to 164 °C. Consider `COc1cc2c(cc1O)CCN(C(=O)c1ccc(OC)c(OC)c1)C2=O`, for which the melting point lay in the range of 199 to 200 °C.

In turn, `ON=C1Cc2ccccc2C1` registered a melting point of 145 to 148 °C.

Compound `COc1cccc(CS[C@H]2C[C@@H](C(N)=O)N(C)C2)c1` had a melting point of 113 to 114 °C. Compound `CCCc1nc2c(N)nc3cccnc3c2n1CC1(O)CCC1` registered a melting point of 226 to 227 °C. As for `CC(=O)OC1C(N2CCCCC2)CC2C3CCC4CCC(O)CC4(C)C3CCC21C` (configuration not stated), the melting point fell in the range of 239 to 240 °C.

For `O=Cc1coc2cc(OC(=O)OCC(Cl)(Cl)Cl)c(OC(=O)OCC(Cl)(Cl)Cl)cc2c1=O`, the melting point was 153 to 155 °C. Compound `COc1ccc(Cl)cc1C(C)(C)c1cc(Cl)ccc1O` displayed a melting point of 137 °C. Regarding `CCn1ncc2c(NC3CCc4ccccc43)c3ccccc3nc21` (configuration not stated), the melting point fell in the range of 233 to 235 °C. Under `O=S(=O)(Nc1ccc(Cl)cc1C=NOCc1ccc(C(F)(F)F)cc1C(F)(F)F)C(F)(F)F` stands 65 to 67 °C; under `Cc1ccc(=S)n(-c2cccc(C(F)(F)F)c2)c1`, 96 °C; under `CCCN(Cc1ccc(C(=O)N2CCN(c3ccccc3)CC2)cc1)C1CCc2ncsc2C1` (configuration not stated), 70 °C. In the case of `C#CCNC(=O)c1ccccc1Nc1nc(Cl)ncc1Cl`, the melting point fell in the range of 188 to 191 °C. As to `O=[N+]([O-])c1ccc(N(CCO)CCO)cc1F`, the melting point lay in the range of 99 to 101 °C. The compound `CC1(C)C(Br)C(=O)C1CC(Cl)(Cl)Cl` (configuration not stated) registered a melting point of 56 °C. For the compound `CCCCCCCCC(=O)NCC(=O)O`, the melting point lay within 106 to 109 °C.

`COc1ccc(NC(=O)/C=C/c2ccc([N+](=O)[O-])c(F)c2)cc1[N+](=O)[O-]` gave a melting point of 263 to 265 °C. The same measure for `CCCn1cc(Cc2ccc(C(=O)NS(=O)(=O)c3ccccc3C)cc2OC)c2cc(CC3CCN(CC)C3=O)ccc21` (configuration not stated): 107 to 115 °C. With `CC(N)C1CCC(C(=O)Nc2ccncc2)CC1` (configuration not stated), the melting point was 286 to 287 °C. Regarding `COc1ccc(C(=O)Nc2nc(=O)c3cnn4c3n2CC=C4c2cccc(C(F)(F)F)c2)cc1`, the melting point was in the range of 271 to 273 °C.

For `COCCN1CC(C(=O)O)N(S(=O)(=O)c2ccc(OC)cc2)Cc2ccccc21` (configuration not stated), the melting point was 164 to 165 °C. Regarding `Cn1cc(C(=O)O)c(=O)c2cc3cc(F)c(N4CCNC(c5ccc(OCCO)cc5)C4)cc3nc21` (racemic), the melting point was 276 °C. `Nc1ccc(S(=O)(=O)Nc2cc(Cl)nc(C(F)(F)F)c2)cc1` showed a melting point of 179 to 181 °C. In turn, `COc1cc(COc2cc(/C=C/c3cscn3)n(-c3ccccc3)n2)ccc1OCc1nc(-c2ccco2)oc1C` gave a melting point of 154 to 155 °C. The compound `COC(=O)c1cc(CCCc2coc3nc(N)nc(N)c23)cs1` showed a melting point of 156 to 157 °C.
